Experimental data as given in ChEMBL document CHEMBL3991601, “The target landscape of clinical kinase drugs” (Science, 2017).
Activity calls are given as the source filed them.

Experiments:
[1] = target: T1, AarF domain-containing protein kinase 1 (Homo sapiens, UniProt Q86TW2)
T1 sequence (Q86TW2 whole entry): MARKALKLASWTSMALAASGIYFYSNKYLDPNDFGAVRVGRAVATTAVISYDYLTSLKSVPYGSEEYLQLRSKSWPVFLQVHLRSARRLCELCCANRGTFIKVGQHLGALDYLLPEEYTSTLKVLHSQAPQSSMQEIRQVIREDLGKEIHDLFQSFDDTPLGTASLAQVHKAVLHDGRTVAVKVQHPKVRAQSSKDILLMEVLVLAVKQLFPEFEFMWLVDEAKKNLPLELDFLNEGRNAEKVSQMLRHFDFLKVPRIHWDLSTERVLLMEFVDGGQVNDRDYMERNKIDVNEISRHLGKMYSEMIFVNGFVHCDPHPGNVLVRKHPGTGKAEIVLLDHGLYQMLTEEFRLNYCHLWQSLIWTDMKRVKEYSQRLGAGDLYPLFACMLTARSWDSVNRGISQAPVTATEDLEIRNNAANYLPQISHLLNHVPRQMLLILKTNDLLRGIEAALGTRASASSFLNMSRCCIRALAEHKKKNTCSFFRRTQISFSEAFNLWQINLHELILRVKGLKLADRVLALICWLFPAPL

[2] = target: T2, Cysteine--tRNA ligase, cytoplasmic (Homo sapiens, UniProt P49589)
T2 sequence (P49589 whole entry): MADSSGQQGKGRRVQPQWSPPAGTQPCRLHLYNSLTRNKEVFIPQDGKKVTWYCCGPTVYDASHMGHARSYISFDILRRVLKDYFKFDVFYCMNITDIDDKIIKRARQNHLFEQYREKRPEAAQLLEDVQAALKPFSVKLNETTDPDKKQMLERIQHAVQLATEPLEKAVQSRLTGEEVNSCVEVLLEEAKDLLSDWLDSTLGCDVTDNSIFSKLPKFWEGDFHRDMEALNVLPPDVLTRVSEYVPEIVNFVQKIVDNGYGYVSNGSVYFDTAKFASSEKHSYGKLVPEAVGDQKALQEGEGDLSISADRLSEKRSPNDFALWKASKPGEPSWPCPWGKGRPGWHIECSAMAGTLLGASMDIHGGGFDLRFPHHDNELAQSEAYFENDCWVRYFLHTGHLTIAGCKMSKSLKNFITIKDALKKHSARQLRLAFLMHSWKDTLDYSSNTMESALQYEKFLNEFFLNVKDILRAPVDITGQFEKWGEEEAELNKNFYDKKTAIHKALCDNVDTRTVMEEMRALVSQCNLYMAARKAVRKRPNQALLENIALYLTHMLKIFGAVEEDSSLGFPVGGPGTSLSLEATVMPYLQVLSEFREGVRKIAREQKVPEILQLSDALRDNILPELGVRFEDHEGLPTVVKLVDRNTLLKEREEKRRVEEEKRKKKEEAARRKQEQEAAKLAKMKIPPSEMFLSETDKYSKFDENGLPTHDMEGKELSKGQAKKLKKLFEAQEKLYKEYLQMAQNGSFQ

[3] = target: Dual specificity protein kinase CLK2 (Homo sapiens, UniProt P49760)
Dual specificity protein kinase CLK2, sequence (P49760 whole entry): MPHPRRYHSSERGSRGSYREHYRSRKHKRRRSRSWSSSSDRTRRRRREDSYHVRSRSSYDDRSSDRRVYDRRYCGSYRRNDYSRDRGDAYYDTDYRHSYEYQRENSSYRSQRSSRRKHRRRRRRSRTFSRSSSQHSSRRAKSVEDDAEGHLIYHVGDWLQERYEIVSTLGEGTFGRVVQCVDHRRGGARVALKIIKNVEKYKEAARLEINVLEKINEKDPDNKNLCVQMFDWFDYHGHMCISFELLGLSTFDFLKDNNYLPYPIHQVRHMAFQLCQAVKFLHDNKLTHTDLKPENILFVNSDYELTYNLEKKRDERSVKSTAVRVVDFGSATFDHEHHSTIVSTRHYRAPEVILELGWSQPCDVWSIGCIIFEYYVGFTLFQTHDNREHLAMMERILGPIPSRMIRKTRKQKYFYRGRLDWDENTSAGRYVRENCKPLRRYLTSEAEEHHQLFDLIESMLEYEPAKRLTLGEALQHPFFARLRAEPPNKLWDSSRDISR

[4] = target: Dual specificity mitogen-activated protein kinase kinase 1 (Homo sapiens, UniProt Q02750)
Dual specificity mitogen-activated protein kinase kinase 1, sequence (Q02750 whole entry): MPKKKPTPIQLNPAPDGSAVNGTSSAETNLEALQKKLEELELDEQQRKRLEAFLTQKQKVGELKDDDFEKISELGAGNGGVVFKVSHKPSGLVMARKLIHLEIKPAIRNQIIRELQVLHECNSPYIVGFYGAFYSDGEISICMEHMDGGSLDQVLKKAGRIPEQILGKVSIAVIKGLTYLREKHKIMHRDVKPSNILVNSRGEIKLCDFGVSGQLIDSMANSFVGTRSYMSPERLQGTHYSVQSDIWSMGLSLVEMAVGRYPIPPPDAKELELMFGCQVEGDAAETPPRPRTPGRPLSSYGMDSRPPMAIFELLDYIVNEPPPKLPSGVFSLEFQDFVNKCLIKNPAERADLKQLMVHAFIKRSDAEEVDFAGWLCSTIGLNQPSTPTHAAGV

Myosin-10 = Myosin-10 (Homo sapiens, UniProt P35580)
[5] = target: Serine/threonine-protein kinase Nek7 (Homo sapiens, UniProt Q8TDX7)
Serine/threonine-protein kinase Nek7, sequence (Q8TDX7 whole entry): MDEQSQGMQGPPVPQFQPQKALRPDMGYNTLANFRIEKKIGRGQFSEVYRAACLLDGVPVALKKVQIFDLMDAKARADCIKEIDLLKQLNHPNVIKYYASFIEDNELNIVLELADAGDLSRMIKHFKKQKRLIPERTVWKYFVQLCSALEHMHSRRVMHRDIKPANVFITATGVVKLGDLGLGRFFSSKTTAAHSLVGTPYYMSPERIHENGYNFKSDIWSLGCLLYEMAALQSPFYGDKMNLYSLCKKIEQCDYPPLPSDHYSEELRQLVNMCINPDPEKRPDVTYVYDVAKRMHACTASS

[6] = target: Membrane-associated progesterone receptor component 1 (Homo sapiens, UniProt O00264)
Membrane-associated progesterone receptor component 1, sequence (O00264 whole entry): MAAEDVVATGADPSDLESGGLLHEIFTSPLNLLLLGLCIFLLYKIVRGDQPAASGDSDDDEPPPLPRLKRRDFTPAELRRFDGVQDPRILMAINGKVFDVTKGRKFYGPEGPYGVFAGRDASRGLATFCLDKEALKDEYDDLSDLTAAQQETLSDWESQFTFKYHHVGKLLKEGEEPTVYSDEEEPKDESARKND

[7] = target: Serine/threonine-protein kinase pim-2 (Homo sapiens, UniProt Q9P1W9)
Serine/threonine-protein kinase pim-2, sequence (Q9P1W9 whole entry): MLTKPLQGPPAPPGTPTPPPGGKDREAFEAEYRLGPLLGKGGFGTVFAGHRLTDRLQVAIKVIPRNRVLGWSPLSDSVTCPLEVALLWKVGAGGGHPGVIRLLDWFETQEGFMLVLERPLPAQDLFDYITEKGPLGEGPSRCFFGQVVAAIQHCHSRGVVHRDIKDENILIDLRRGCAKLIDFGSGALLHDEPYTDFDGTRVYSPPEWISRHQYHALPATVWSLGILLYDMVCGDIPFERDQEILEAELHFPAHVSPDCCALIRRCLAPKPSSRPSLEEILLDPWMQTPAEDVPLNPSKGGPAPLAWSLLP

[8] = target: Protein kinase C theta type (Homo sapiens, UniProt Q04759)
Protein kinase C theta type, sequence (Q04759 whole entry): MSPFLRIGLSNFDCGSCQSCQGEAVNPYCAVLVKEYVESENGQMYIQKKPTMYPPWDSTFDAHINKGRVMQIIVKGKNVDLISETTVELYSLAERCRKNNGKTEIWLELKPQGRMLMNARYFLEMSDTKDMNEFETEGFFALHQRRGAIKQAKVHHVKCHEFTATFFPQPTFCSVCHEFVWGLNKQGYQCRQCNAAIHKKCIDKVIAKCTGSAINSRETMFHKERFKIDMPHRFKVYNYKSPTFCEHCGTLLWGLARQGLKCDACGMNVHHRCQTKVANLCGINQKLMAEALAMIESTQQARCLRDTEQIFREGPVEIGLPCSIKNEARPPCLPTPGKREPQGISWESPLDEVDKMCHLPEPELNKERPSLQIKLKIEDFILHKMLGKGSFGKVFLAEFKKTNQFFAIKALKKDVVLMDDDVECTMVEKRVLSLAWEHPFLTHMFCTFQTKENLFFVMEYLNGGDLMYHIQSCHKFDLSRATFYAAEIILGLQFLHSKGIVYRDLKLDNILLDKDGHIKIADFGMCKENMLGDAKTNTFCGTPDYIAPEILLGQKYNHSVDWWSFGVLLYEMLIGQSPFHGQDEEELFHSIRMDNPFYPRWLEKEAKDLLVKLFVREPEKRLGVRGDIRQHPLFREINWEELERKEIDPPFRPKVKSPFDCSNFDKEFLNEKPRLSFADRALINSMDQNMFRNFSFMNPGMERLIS

[9] = target: Proto-oncogene tyrosine-protein kinase receptor Ret (Homo sapiens, UniProt P07949)
Proto-oncogene tyrosine-protein kinase receptor Ret, sequence (P07949 whole entry): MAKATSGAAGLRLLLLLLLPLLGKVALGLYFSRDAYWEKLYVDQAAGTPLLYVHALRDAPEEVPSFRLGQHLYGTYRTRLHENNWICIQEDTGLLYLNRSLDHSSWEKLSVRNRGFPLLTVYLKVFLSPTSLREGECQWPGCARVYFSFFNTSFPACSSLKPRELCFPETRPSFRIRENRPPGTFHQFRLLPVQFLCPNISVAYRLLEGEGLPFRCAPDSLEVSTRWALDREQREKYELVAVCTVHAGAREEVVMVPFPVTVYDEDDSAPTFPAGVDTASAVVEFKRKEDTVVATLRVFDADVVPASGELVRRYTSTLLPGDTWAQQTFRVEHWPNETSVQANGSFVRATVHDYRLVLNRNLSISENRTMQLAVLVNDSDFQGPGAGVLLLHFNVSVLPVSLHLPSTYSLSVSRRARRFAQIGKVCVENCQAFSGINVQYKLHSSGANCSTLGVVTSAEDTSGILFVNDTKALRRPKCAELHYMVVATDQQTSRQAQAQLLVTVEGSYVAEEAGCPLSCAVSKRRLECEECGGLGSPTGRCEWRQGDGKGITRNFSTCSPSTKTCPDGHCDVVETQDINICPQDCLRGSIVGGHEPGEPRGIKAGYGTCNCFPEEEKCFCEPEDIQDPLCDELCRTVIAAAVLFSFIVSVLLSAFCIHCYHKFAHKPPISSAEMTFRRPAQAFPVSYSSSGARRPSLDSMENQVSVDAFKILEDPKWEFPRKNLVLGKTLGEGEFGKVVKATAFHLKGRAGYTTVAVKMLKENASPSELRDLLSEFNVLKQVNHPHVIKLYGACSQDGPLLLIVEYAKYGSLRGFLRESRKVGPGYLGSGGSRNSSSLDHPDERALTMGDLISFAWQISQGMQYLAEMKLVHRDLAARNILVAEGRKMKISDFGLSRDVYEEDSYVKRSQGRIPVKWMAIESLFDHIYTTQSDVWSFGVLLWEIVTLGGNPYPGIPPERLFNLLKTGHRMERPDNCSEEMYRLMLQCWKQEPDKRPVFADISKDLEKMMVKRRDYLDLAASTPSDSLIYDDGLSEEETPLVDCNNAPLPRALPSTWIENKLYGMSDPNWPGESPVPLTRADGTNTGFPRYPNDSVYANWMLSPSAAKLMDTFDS

[10] = target: Dual specificity testis-specific protein kinase 2 (Homo sapiens, UniProt Q96S53)
Dual specificity testis-specific protein kinase 2, sequence (Q96S53 whole entry): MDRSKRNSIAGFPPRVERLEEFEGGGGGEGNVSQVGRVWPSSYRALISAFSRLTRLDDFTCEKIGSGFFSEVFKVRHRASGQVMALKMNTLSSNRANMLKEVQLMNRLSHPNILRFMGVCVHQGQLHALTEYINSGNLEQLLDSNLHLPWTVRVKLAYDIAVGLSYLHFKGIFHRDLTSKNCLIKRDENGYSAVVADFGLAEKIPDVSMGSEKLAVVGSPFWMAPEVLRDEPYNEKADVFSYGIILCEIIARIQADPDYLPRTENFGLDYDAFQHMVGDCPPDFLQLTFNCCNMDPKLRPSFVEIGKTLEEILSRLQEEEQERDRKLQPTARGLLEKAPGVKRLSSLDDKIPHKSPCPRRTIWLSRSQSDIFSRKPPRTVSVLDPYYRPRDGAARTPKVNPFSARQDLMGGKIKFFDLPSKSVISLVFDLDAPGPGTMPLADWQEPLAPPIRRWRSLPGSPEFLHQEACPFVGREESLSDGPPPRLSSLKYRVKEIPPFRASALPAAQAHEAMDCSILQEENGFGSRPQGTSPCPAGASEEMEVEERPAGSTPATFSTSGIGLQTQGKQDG

[11] = target: DNA topoisomerase 2-alpha (Homo sapiens, UniProt P11388)
[12] = target: T3, EKC/KEOPS complex subunit TP53RK (Homo sapiens, UniProt Q96S44)
T3 sequence (Q96S44 whole entry): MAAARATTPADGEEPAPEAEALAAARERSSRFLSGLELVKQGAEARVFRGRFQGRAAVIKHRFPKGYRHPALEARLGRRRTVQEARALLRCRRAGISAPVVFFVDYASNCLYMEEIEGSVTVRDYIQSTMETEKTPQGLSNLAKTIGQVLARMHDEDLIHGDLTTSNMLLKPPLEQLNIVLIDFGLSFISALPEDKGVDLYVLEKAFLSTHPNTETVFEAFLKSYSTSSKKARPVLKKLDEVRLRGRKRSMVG

[13] = target: Uncharacterized aarF domain-containing protein kinase 5 (Homo sapiens, UniProt Q3MIX3)
Uncharacterized aarF domain-containing protein kinase 5, sequence (Q3MIX3 whole entry, the tested form may be a part): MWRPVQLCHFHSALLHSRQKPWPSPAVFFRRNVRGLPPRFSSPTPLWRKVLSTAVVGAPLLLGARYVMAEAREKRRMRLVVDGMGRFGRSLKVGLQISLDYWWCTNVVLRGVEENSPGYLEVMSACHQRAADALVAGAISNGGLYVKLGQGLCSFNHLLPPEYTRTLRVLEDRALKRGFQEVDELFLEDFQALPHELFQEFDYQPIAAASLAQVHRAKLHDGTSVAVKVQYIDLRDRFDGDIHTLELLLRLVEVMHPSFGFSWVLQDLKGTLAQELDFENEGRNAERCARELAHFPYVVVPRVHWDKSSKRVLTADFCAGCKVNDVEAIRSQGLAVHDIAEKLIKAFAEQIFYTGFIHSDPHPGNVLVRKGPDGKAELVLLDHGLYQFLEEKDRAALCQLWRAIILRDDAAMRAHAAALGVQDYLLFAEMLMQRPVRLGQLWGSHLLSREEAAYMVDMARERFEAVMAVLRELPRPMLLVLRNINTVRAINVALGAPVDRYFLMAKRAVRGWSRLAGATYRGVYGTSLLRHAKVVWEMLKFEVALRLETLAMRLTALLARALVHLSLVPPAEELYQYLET
Further: in the data inactive means no Kd found up to 30 µM.

| Structure (SMILES) | Kd [1] | Kd [2] | Kd [3] | Kd [4] | Kd (Myosin-10) | Kd [5] | Kd [6] | Kd [7] | Kd [8] | Kd [9] | Kd [10] | Kd [11] | Kd [12] | Kd [13] |
| --- | --- | --- | --- | --- | --- | --- | --- | --- | --- | --- | --- | --- | --- | --- |
| Cc1cc(Nc2nc(N[C@@H](C)c3ncc(F)cn3)ncc2Cl)n[nH]1 [AZD-1480] | > 30 µM (inactive) | > 30 µM (inactive) | > 30 µM (inactive) | > 30 µM (inactive) | > 30 µM (inactive) | > 30 µM (inactive) | > 30 µM (inactive) | > 30 µM (inactive) | > 30 µM (inactive) | 0.238 µM (active) | > 30 µM (inactive) | > 30 µM (inactive) | > 30 µM (inactive) |  |
| COc1cc2ncnc(Nc3ccc(F)c(Cl)c3)c2cc1NC(=O)/C=C/CN1CCCCC1 [DACOMITINIB ANHYDROUS] | > 30 µM (inactive) | > 30 µM (inactive) | > 30 µM (inactive) | > 30 µM (inactive) |  | > 30 µM (inactive) |  | > 30 µM (inactive) | > 30 µM (inactive) | > 30 µM (inactive) | > 30 µM (inactive) |  | > 30 µM (inactive) | > 30 µM (inactive) |
| O=S(=O)(c1cccc2c(O)nccc12)N1CCCNCC1 [HYDROXYFASUDIL] | > 30 µM (inactive) | > 30 µM (inactive) | > 30 µM (inactive) | > 30 µM (inactive) | > 30 µM (inactive) | > 30 µM (inactive) | > 30 µM (inactive) | > 30 µM (inactive) | > 30 µM (inactive) | > 30 µM (inactive) |  | > 30 µM (inactive) | > 30 µM (inactive) | > 30 µM (inactive) |
| O=C(NOC[C@H](O)CO)c1ccc(F)c(F)c1Nc1ccc(I)cc1F [MIRDAMETINIB] | > 30 µM (inactive) | > 30 µM (inactive) | > 30 µM (inactive) |  | > 30 µM (inactive) | > 30 µM (inactive) | > 30 µM (inactive) | > 30 µM (inactive) | > 30 µM (inactive) | > 30 µM (inactive) |  | > 30 µM (inactive) | > 30 µM (inactive) | > 30 µM (inactive) |
| N#CCNC(=O)c1ccc(-c2ccnc(Nc3ccc(N4CCOCC4)cc3)n2)cc1 [MOMELOTINIB] | 0.217 µM | > 30 µM (inactive) | > 30 µM (inactive) |  |  | > 30 µM (inactive) | > 30 µM (inactive) | > 30 µM (inactive) |  |  |  | > 30 µM (inactive) | > 30 µM (inactive) |  |
| CC(C)CC(=O)Nc1[nH]nc2c1CN(C(=O)C1CCN(C)CC1)C2(C)C [PHA-793887] | > 30 µM (inactive) | > 30 µM (inactive) | 0.007 µM | > 30 µM (inactive) | > 30 µM (inactive) | > 30 µM (inactive) | > 30 µM (inactive) | > 30 µM (inactive) | 2.34 µM (active) |  |  | > 30 µM (inactive) | > 30 µM (inactive) | > 30 µM (inactive) |
| O[C@H]1CC[C@H](Nc2ncc3nc(Nc4c(F)cc(F)cc4F)n([C@H]4CCOC4)c3n2)CC1 [TANZISERTIB] | > 30 µM (inactive) |  | > 30 µM (inactive) | > 30 µM (inactive) |  | > 30 µM (inactive) |  | > 30 µM (inactive) | > 30 µM (inactive) |  |  | > 30 µM (inactive) | > 30 µM (inactive) | > 30 µM (inactive) |
| C[C@@H]1COC(Nc2ccc3ncnc(Nc4ccc(OCc5nccs5)c(Cl)c4)c3c2)=N1 [VARLITINIB] | > 30 µM (inactive) | > 30 µM (inactive) | > 30 µM (inactive) | > 30 µM (inactive) |  | > 30 µM (inactive) | > 30 µM (inactive) | > 30 µM (inactive) | > 30 µM (inactive) | > 30 µM (inactive) | > 30 µM (inactive) | > 30 µM (inactive) | > 30 µM (inactive) |  |
| COc1cc2ncnc(Nc3ccc(O)cc3)c2cc1OC [WHI-P131] | > 30 µM (inactive) | > 30 µM (inactive) | > 30 µM (inactive) | > 30 µM (inactive) | > 30 µM (inactive) | > 30 µM (inactive) | > 30 µM (inactive) | > 30 µM (inactive) | > 30 µM (inactive) | 21.9 µM (active) | > 30 µM (inactive) | > 30 µM (inactive) | > 30 µM (inactive) |  |
